According to US20250276962A1, “CONTRACEPTIVE COMPOUNDS AND METHODS” (Regents of the University of Minnesota, priority 2021, published 2025):
Entries after “also recorded” stand apart in the source; their conditions may differ. Where two headings read alike, the source gives them in different places.

Tests used:
[1] = test system: human liver fibroblast; format: cell-based
Excerpt: The results were negative.

[2] = test system: male Sprague-Dawley rats; assay: Testis histopathology after 14-day dosing, rat; format: in vivo; settings: male SD rats, daily doses for 14 days (25 mg/kg/day in FIG. 11)
Protocol: (§1) 2 male Beagle dogs and 5 male SD rats were dosed with 25 mg/kg/day for 14 days. On Day 15, animals were euthanized to harvest organs for histopathology. Shown are representative images. See Example 19.

[3] = test system: male Beagle dogs; assay: Testis histopathology after 14-day dosing, dog; format: in vivo; settings: daily doses for 14 days (25 mg/kg/day in FIG. 11)
Protocol: as §1

[4] = Repeat dose PK (14 days), dog; format: in vivo; settings: male, Beagle, plasma, oral, Day 14
Protocol: […]. In this study, AUC0-inf was measured.

[5] = Solubility in saline and 50% carbitol; format: physicochemical
[6] = target: KVLQT(7.1)/mink (cardiac potassium ion channel) (Homo sapiens, UniProt P51787); assay: Off-target screening, KVLQT(7.1)/mink; format: cell-based
Chain of KVLQT(7.1)/mink (cardiac potassium ion channel) (P51787 whole entry): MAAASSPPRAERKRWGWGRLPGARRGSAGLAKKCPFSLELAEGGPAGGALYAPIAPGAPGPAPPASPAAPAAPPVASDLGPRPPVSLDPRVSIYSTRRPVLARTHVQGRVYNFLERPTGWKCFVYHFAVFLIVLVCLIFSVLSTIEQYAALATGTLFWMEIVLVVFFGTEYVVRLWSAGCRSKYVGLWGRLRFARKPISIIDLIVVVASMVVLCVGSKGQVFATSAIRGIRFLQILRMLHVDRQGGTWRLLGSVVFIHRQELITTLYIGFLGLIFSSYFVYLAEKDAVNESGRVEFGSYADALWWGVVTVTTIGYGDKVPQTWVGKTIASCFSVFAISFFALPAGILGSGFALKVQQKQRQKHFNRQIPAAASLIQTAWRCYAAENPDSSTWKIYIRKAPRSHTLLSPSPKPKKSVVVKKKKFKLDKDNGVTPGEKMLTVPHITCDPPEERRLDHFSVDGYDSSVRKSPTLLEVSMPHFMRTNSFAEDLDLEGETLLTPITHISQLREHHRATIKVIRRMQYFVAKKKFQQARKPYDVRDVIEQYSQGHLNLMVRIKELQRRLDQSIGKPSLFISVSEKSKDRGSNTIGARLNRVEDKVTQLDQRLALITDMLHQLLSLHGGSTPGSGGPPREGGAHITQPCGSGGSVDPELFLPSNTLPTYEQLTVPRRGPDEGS

[7] = test system: KCNQ1; assay: in vitro; format: cell-based
[8] = target: cannabinoid receptor 2 (CB2) (Homo sapiens, UniProt P34972); assay: Off-target screening, CB2; format: cell-based
Chain of cannabinoid receptor 2 (CB2) (P34972 whole entry, species assumed): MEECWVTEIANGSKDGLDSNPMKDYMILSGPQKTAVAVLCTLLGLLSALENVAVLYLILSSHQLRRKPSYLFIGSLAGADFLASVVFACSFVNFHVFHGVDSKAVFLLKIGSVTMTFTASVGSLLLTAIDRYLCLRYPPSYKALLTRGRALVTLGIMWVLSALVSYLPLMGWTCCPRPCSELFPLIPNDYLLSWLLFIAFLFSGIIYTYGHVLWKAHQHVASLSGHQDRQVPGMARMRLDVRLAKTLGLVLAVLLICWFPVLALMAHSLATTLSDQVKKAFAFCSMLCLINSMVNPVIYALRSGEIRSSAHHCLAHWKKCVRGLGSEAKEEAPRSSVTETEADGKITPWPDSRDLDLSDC

[9] = target: monoamine oxidase A (MAO-A) (Homo sapiens, UniProt P21397); assay: Off-target screening, MAO-A; format: biochemical
Chain of monoamine oxidase A (MAO-A) (P21397 whole entry, species assumed): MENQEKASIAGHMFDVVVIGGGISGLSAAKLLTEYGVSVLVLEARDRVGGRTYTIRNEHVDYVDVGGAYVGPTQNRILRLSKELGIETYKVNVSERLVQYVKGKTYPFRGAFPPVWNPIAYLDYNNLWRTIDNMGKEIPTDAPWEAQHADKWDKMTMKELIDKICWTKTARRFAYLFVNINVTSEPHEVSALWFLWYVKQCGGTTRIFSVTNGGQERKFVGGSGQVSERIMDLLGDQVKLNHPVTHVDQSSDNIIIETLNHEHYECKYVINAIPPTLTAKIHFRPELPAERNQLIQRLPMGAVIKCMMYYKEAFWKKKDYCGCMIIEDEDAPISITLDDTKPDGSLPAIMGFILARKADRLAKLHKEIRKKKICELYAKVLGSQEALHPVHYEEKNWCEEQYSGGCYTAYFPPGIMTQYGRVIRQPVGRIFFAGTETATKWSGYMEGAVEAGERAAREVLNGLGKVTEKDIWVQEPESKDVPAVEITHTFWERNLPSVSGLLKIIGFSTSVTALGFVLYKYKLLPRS

[10] = target: cyclooxygenase 1 (COX1) (Homo sapiens, UniProt P23219); assay: Off-target screening, COX1; format: biochemical
Chain of cyclooxygenase 1 (COX1) (P23219 24-599, species assumed): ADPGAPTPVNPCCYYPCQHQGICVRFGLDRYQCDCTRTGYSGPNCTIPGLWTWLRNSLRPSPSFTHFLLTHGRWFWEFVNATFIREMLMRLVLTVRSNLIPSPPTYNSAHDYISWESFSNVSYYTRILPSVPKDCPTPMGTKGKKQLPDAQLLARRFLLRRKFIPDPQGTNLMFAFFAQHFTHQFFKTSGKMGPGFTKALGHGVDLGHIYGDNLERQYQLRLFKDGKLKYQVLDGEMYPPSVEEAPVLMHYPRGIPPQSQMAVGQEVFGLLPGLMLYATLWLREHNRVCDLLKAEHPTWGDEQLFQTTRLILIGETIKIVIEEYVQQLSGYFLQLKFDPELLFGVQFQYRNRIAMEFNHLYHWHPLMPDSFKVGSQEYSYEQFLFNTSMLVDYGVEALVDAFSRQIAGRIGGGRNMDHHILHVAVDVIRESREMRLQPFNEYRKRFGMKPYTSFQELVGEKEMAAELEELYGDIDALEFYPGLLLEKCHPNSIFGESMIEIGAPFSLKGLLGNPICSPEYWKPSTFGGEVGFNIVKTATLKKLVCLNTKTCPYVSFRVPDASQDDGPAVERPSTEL

[11] = target: cannabinoid receptor 1 (CB1) (Homo sapiens, UniProt P21554); assay: Off-target screening, CB1; format: cell-based
Chain of cannabinoid receptor 1 (CB1) (P21554 whole entry, species assumed): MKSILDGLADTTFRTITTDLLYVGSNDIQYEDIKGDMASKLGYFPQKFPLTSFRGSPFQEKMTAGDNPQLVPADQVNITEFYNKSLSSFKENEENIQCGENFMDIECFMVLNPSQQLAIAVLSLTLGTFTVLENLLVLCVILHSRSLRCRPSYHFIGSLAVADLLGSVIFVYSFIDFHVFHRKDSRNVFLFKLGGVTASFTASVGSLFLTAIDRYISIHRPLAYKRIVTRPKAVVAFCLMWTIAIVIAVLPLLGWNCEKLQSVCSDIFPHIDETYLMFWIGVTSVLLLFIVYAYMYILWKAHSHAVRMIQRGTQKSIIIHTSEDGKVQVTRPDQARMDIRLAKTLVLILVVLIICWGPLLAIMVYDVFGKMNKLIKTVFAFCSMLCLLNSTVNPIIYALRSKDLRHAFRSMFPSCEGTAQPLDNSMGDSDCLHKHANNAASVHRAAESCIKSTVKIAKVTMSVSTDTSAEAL

[12] = Stability in monkey hepatocytes; format: in vitro ADME; settings: read-out: Half-life (T1/2) Hepatocytes (Phase I and Phase II metabolism) (converted)
[13] = Stability in dog hepatocytes; format: in vitro ADME; settings: read-out: Half-life (T1/2) Hepatocytes (Phase I and Phase II metabolism)
[14] = Stability in rabbit liver microsomes; format: in vitro ADME; settings: read-out: Half-life (T1/2) Liver microsomes (Phase I metabolism) (converted)
[15] = Stability in dog liver microsomes; format: in vitro ADME; settings: read-out: Half-life (T1/2) Liver microsomes (Phase I metabolism)
[16] = test system: HepG2
[17] = test system: male Sprague-Dawley rats
[18] = in vitro; settings: human
[19] = in vitro; settings: human hepatocytes
[20] = physchem; settings: pH 7.4
[21] = Single dose toxicity, rat; settings: Sprague-Dawley, in vivo, Maximum tolerated dose (MTD), Sprague-Dawley rats, highest dose level tested
[22] = Single dose toxicity, dog; settings: Beagle, in vivo, Maximum tolerated dose (MTD), Beagle dogs, highest dose level tested
[23] = Single dose toxicity, mouse; settings: male, CD-1, mouse, in vivo, Maximum tolerated dose (MTD), male CD-1 mice, highest dose level tested
[24] = test system: male CD-1 mice; assay: Mouse studies with epididymal sperm count as readout; settings: 10 mg/kg/day for 4 weeks

Cc1ccc(C2=CC(C)(C)Oc3ccc(-c4ccc(-c5ccc(C(=O)[O-])cc5)[nH]4)cc32)cc1.[Na+] [Example 1, Sodium 4-(5-(2,2-dimethyl-4-(p-tolyl)-2H-chromen-6-yl)-1H-pyrrol-2-yl)benzoate]
Human liver (lung) fibroblast assay result [1]: negative | Human liver (lung) fibroblast assay result ([1]; human): The compound of Example 1 showed no cytopathic effects in HepG2 and human | Testis histopathology [2]: degeneration of the germinal epithelium; also recorded: impairs the germinal epithelium | Testis histopathology [3]: degeneration of the germinal epithelium; also recorded: visible in all evaluated tubuli seminiferi contorti; also recorded: impairs the germinal epithelium | AUC(0-inf) ([4]; Dog 25 mg/kg/day): 752 µg·h/mL | AUC(0-inf) ([4]; Dog 100 mg/kg/day): 14100 µg·h/mL | solubility ([5]; 50% carbitol [2-(2-ethoxyethoxy)ethanol], aqueous with cosolvent or surfactant or cyclodextrin, in 50% carbitol [2-(2-ethoxyethoxy)ethanol, read-out: Solubility): > 100 mg/mL | solubility ([5]; saline, saline or isotonic, in saline, read-out: Solubility): ≤ 100 mg/mL | solubility ([5]; saline, saline or isotonic, saline, read-out: Solubility (saline)): 2 mg/mL | inhibition at 10 µM [6]: 14.9% | inhibition at 10 µM [7]: 22.8% | IC50 [8]: 23.3 µM | inhibition at 10 µM ([8]; 10 μM): 34.3% | IC50 [9]: 24.6 µM | inhibition at 10 µM ([9]; 10 μM): 45.8% | IC50 [10]: 1.41 µM | inhibition at 10 µM ([10]; read-out: Inhibition of COX1): 78.9% | IC50 [11]: 1.8 µM | inhibition at 10 µM ([11]; 10 μM): 90.5% | half-life [12]: 3.2 h | half-life [13]: > 10 h | half-life [14]: 19.6 h | half-life [15]: > 23.1 h | HepG2 cytotoxicity assay result [16]: negative | HepG2 cytotoxicity assay result ([16]; human): The compound of Example 1 showed no cytopathic effects in HepG2 and human | Safety margin ([17]; male, Sprague-Dawley, rat, in vivo, 14 days): at least 10 × | Tolerability after dose reduction to 75 mg/kg ([17]; rat, in vivo): overall health and activity improved, they gained weight, and had normal CBC and clinical chemistry | Tolerability ([17]; rat, in vivo, 250 mg/kg/day): not tolerated | Tolerability ([17]; rat, in vivo, po, 25 mg/kg/day): tolerated well | Tolerability ([17]; rat, in vivo, po, 50 mg/kg/day): tolerated well | Tolerated dose on repeated dosing for 14 days ([17]; rats): 50 to 75 mg/kg | CLint scaled ([18]; microsomes): 3.05 mL/min/kg | half-life ([18]; pooled liver microsomes): 9.5 h | CLint scaled [19]: 6.75 mL/min/kg | logD [20]: 3.5 | MTD [21]: 750 mg/kg | MTD [22]: > 500 mg/kg | MTD [23]: > 1000 mg/kg | Effect on sperm counts and recovery ([24]; 2 weeks recovery, 10 mg/kg/day): Sperm counts started to increase; also recorded: reversibly reduces sperm counts | Epididymal sperm counts ([24]; 24 h after last dose): 0.51±0.27 ×10^7 | Reduction of epididymal sperm counts ([24]; 24 h after last dose): 90%
